Consider 35 molecules from US9932350B2, “Inhibitors of IRAK4 activity” (MERCK SHARP & DOHME CORP., priority 2014, dated 2018).

The target of this assay is GST tagged IRAK4 (Homo sapiens (Human), UniProt Q9NWZ3). Put plainly: IRAK4 Kinase Assay (IMAP fluorescence polarization). The note with it: 0.5 nM GST tagged IRAK4, 100 μM ATP, 30 minutes at 25° C. The class given is biochemical. Here is the method:
The kinase activity of IRAK4 is determined by its ability to catalyze the phosphorylation of a fluorescent polypeptide substrate. The extent of phosphorylation is measured using the IMAP technology (Molecular Devices) where the phosphorylated fluorescent substrate binds to the large M(III)-based nanoparticles which reduces the rotational speed of the substrate and thus increases its fluorescent polarization (FP).
20 μL reaction mixture contains 10 mM TriHCl, pH 7.2, 0.5 nM GST tagged IRAK4 (SignalChem), 100 nM fluorescent peptide substrate (RP7030, Molecular Devices), 100 μM ATP, 1 mM DDT, 1 mM MgCl2, and 0.01% Tween 20. The reaction is initiated by the addition of ATP. After incubation for 30 minutes at 25° C., 60 μL of Progressive IMAP Reagent (Molecular Devices) is added to stop the reaction. Change in RP7030's FP is determined by a FP reader (Analyst HT, LJL BioSystems).
For orientation: Fluorescence polarisation rises when a labelled molecule tumbles more slowly, as on binding a larger partner.

pIC50: −log10 of the molar value.

Sequence of GST tagged IRAK4 (Q9NWZ3 whole entry): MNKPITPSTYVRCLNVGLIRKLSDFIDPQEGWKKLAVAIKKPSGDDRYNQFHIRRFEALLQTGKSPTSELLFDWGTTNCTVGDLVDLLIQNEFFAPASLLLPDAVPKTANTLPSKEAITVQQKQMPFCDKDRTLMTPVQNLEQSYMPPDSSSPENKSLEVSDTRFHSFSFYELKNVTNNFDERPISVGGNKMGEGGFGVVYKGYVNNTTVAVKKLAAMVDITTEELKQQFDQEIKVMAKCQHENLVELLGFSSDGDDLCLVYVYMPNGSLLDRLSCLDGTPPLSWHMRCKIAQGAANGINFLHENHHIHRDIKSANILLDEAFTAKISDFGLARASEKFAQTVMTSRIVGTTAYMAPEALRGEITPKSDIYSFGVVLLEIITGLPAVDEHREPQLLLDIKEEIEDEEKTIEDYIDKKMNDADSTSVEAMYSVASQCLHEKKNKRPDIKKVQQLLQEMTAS

`Cc1c(C#N)ccc2ncnc(N[C@H]3CC[C@H](N4CCOCC4)CC3)c12` [Example 5-2, 5-methyl-4-{[trans-4-(morpholin-4-yl)cyclohexyl]amino} quinazoline-6-carbonitrile]: the pIC50 was 7.28.

Consider `N#Cc1ccc2ncnc(N[C@H]3CC[C@H](N4CCOC5(CC5)C4)CC3)c2c1` [Example 3-26, 4-{[trans-4-(4-oxa-7-azaspiro[2.5]oct-7-yl)cyclohexyl]amino} quinazoline-6-carbonitrile], for which the pIC50 was 7.34.

As to `N#Cc1ccc2ncnc(N[C@H]3CC[C@H](N4CC(N5CCOCC5)C4)CC3)c2c1` [Example 3-37, 4-({trans-4-[3-(morpholin-4-yl)azetidin-1-yl]cyclohexyl}amino) quinazoline-6-carbonitrile], the pIC50 is 7.39.

Regarding `N#Cc1ccc2ncnc(N[C@H]3CC[C@H](N4CCOC(C(F)(F)F)C4)CC3)c2c1` (single isomer, unassigned) [Example 3-48, 4-({trans-4-[(2R or 2S)-2-(trifluoromethyl)morpholin-4-yl]cyclohexyl}amino) quinazoline-6-carbonitrile], the pIC50 is 6.59.

`COC1CN([C@H]2CC[C@H](Nc3ncnc4ccc(C#N)cc34)CC2)C1` [Example 3-29, 4-{[trans-4-(3-methoxyazetidin-1-yl)cyclohexyl]amino} quinazoline-6-carbonitrile] had a pIC50 of 7.96.

Regarding `Fc1ccc2ncnc(N[C@H]3CC[C@H](N4CCOCC4)CC3)c2c1` [Example 2-9, 6-fluoro-N-[trans-4-(morpholin-4-yl)cyclohexyl]quinazolin-4-amine], the pIC50 was 6.95.

`COCCN[C@H]1CC[C@H](Nc2ncnc3ccc(C#N)cc23)CC1` [Example 3-22, 4-({trans-4-[(2-methoxyethyl)amino]cyclohexyl}amino)quinazoline-6-carbonitrile] showed a pIC50 of 7.80.

In turn, `N#Cc1ccc2ncnc(N[C@H]3CC[C@H](N4CCC(F)(F)CC4)CC3)c2c1` [Example 3-54, 4-{[trans-4-(4,4-difluoropiperidin-1-yl)cyclohexyl]amino} quinazoline-6-carbonitrile] had a negative logarithm of the IC50 (pIC50) of 8.52.

Consider `CC1OCCN([C@H]2CC[C@@H](Nc3ncnc4ccc(C#N)cc34)CC2)C1C` (stereo partly drawn) [Example 3-8, 4-{[cis-4-(2,3-dimethylmorpholin-4-yl)cyclohexyl]amino} quinazoline-6-carbonitrile], for which the negative-log IC50 (pIC50) was 5.59.

Regarding `CC1OCCN([C@H]2CC[C@H](Nc3ncnc4ccc(C#N)cc34)CC2)C1C` (stereo partly drawn) [Example 3-7, 4-{[trans-4-(2,3-dimethylmorpholin-4-yl)cyclohexyl]amino} quinazoline-6-carbonitrile], the pIC50 is 7.02.

Regarding `CN(C)[C@H]1CC[C@H](Nc2ncnc3ccc(OCC#N)cc23)CC1` [Example 2-15], the pIC50 is 7.92.

In the case of `N#Cc1ccc2ncnc(N[C@H]3CC[C@H](N4CCC4)CC3)c2c1` [Example 3-1, 4-{[Trans-4-(azetidin-1-yl)cyclohexyl]amino}quinazoline-6-carbonitrile], the pIC50 is 7.47.

`N#Cc1ccc2ncnc(N[C@H]3CC[C@H](N4CCN(C(=O)CF)CC4)CC3)c2c1` [Example 6-19, 4-({trans-4-[4-(fluoroacetyl)piperazin-1-yl]cyclohexyl}amino) quinazoline-6-carbonitrile]: the pIC50 is 7.64.

Molecule `N#Cc1ccc2ncnc(N[C@H]3CC[C@H](N)CC3)c2c1` [Example 1-1, 4-[(Trans-4-aminocyclohexyl)amino]quinazoline-6-carbonitrile] gave a pIC50 of 7.51.

Turning to `N#Cc1ccc2ncnc(NC3CCC(N4CCOCC4)[C@@H]4C[C@H]34)c2c1` (stereo partly drawn) [Example 2-18, 4-{[(1S,6R)-5-(morpholin-4-yl)bicyclo[4.1.0]hept-2-yl]amino}quinazoline-6-carbonitrile], the pIC50 was 7.25.

`N#Cc1ccc2ncnc(N[C@H]3CC[C@H](N4C[C@@H]5C[C@H]4CO5)CC3)c2c1` [Example 3-18, 4-({trans-4-[(1S,4S)-2-oxa-5-azabicyclo[2.2.1]hept-5-yl]cyclohexyl}amino) quinazoline-6-carbonitrile] gave a pIC50 of 6.94.

The molecule `N#Cc1ccc2ncnc(N[C@H]3CC[C@H](N4CCC(F)CC4)[C@@H]4C[C@@H]43)c2c1` [Example 7-4, 4-{[(1S,2S,5S,6R)-5-(4-fluoropiperidin-1-yl)bicyclo[4.1.0]hept-2-yl]amino}quinazoline-6-carbonitrile] showed a pIC50 of 8.15.

In turn, `CN(C)[C@H]1CC[C@H](Nc2ncnc3ccc(C#N)cc23)CC1` [Example 2-5, 4-{[trans-4-(dimethylamino)cyclohexyl]amino}quinazoline-6-carbonitrile] gave a pIC50 of 8.15.

Consider `CC(F)C(=O)N1CCN([C@H]2CC[C@H](Nc3ncnc4ccc(C#N)cc34)CC2)CC1` (stereo partly drawn) [Example 6-7, 4-({trans-4-[4-(2-fluoropropanoyl)piperazin-1-yl]cyclohexyl}amino) quinazoline-6-carbonitrile], for which the pIC50 was 7.85.

For the molecule `CC1(C(=O)N2CCN([C@H]3CC[C@H](Nc4ncnc5ccc(C#N)cc45)CC3)CC2)COC1` [Example 6-9, 4-[(trans-4-{4-[(3-methyloxetan-3-yl)carbonyl]piperazin-1-yl}cyclohexyl)amino] quinazoline-6-carbonitrile], the negative-log IC50 (pIC50) was 7.85.

The molecule `COc1cc2ncnc(N[C@H]3CC[C@H](N(C)C)CC3)c2cc1OC` [Example 2-3, trans-N′-(6,7-dimethoxyquinazolin-4-yl)-N,N-dimethylcyclohexane-1,4-diamine] showed a pIC50 of 5.13.

In the case of `N#Cc1ccc2ncnc(N[C@H]3CC[C@H](N4CCC(F)CC4)CC3)c2c1` [Example 3-19, 4-{[trans-4-(4-fluoropiperidin-1-yl)cyclohexyl]amino} quinazoline-6-carbonitrile], the negative-log IC50 (pIC50) was 8.52.

`CC1CC(N2CCOCC2)CCC1Nc1ncnc2ccc(C#N)cc12` (single isomer, unassigned) [Example 8-1, 4-{[(1R,2R,4R or 1S,2S,4S)-2-methyl-4-(morpholin-4-yl)cyclohexyl]amino}quinazoline-6-carbonitrile]: the pIC50 is 7.85.

In turn, `N#Cc1ccc2ncnc(N[C@H]3CC[C@H](N4CCN(C(=O)C5CCCC5)CC4)CC3)c2c1` [Example 6-16, 4-({trans-4-[4-(cyclopentylcarbonyl)piperazin-1-yl]cyclohexyl}amino) quinazoline-6-carbonitrile] gave a pIC50 of 8.00.

Turning to `C[C@]1(Nc2ncnc3ccc(C#N)cc23)CC[C@H](N2CCOCC2)CC1` [Example 7-1, 4-{[Trans-1-methyl-4-(morpholin-4-yl)cyclohexyl]amino}quinazoline-6-carbonitrile], the negative-log IC50 (pIC50) was 7.01.

The molecule `CN(C)[C@H]1CC[C@H](Nc2ncnc3ccc(Br)cc23)CC1` [Example 2-6, trans-N′-(6-bromoquinazolin-4-yl)-N,N-dimethylcyclohexane-1,4-diamine] gave a pIC50 of 8.05.

For `COCC(=O)N1CCN([C@H]2CC[C@H](Nc3ncnc4ccc(C#N)cc34)CC2)CC1` [Example 6-10, 4-({trans-4-[4-(methoxyacetyl)piperazin-1-yl]cyclohexyl}amino) quinazoline-6-carbonitrile], the pIC50 was 7.80.

The molecule `CC1CN([C@H]2CC[C@H](Nc3ncnc4ccc(C#N)cc34)CC2)CC(C)O1` (single isomer, unassigned) [Example 3-15, 4-({trans-4-[2S,6S or 2R,6R)-2,6-dimethylmorpholin-4-yl]cyclohexyl}amino) quinazoline-6-carbonitrile] gave a negative-log IC50 (pIC50) of 7.24.

In turn, `CN(C)[C@H]1CC[C@H](Nc2ncnc3ccc(OCCCC(N)=O)cc23)CC1` [Example 4-1, 4-[(4-{[Trans-4-(dimethylamino)cyclohexyl]amino}quinazolin-6-yl)oxy]butanamide] gave a pIC50 of 6.28.

`N#Cc1cc2c(N[C@H]3CC[C@H](N4CCOCC4)CC3)ncnc2cc1F` [Example 5-1, 7-Fluoro-4-{[trans-4-(morpholin-4-yl)cyclohexyl]amino}quinazoline-6-carbonitrile] showed a pIC50 of 7.57.

`CC(C)[C@@H]1COCCN1[C@H]1CC[C@H](Nc2ncnc3ccc(C#N)cc23)CC1` [Example 3-52, 4-({trans-4-[(3R)-3-(propan-2-yl)morpholin-4-yl]cyclohexyl}amino) quinazoline-6-carbonitrile] gave a pIC50 of 7.59.

The molecule `N#Cc1ccc2ncnc(N[C@H]3CC[C@H](N4CCCC(CN5CCOCC5)C4)CC3)c2c1` (single isomer, unassigned) [Example 3-42, 4-({trans-4-[(3R or 3S)-3-(morpholin-4-ylmethyl)piperidin-1-yl]cyclohexyl}amino) quinazoline-6-carbonitrile] had a negative-log IC50 (pIC50) of 8.30.

As for `C[C@@H]1CN([C@H]2CC[C@H](Nc3ncnc4ccc(C#N)cc34)CC2)C[C@H](C)O1` [Example 3-9, 4-({trans-4-[(2R,6S)-2,6-dimethylmorpholin-4-yl]cyclohexyl}amino) quinazoline-6-carbonitrile], the pIC50 was 8.30.

Molecule `CN1CCN([C@H]2CC[C@H](Nc3ncnc4ccc(C#N)cc34)CC2)CC1` [Example 3-30, 4-{[trans-4-(4-methylpiperazin-1-yl)cyclohexyl]amino} quinazoline-6-carbonitrile] had a pIC50 of 7.77.

Regarding `CS(=O)(=O)N1CCN([C@H]2CC[C@H](Nc3ncnc4ccc(C#N)cc34)CC2)CC1` [Example 3-20, 4-({trans-4-[4-(methylsulfonyl)piperazin-1-yl]cyclohexyl}amino) quinazoline-6-carbonitrile], the negative-log IC50 (pIC50) was 8.10.

As usually defined, the pIC50 is −log10 of the IC50, conventionally taken in molar units.
